The values that follow come from PMC8194506 (Antiviral research, 2020).

For data set [1], the system named is EBOV. Particulars: cited from earlier work.
A short description of data set [2]: in vitro. Conditions: human, microsomes.
For data set [3] the following is noted: microsomes.
The nature of data set [4]: in vitro. Conditions: mouse, microsomes.
For data set [5] the following is noted: guinea pig, microsomes.
For data set [6] the following is noted: human, microsomes.
A short description of data set [7]: in vitro. Particulars: guinea pig, microsomes.
For data set [8] the following is noted: mouse, microsomes.
Data set [9] deals with Sudan virus. Particulars: guinea pig, in vivo, sc; cited from earlier work.
In data set [10] the test system is EBOV. Particulars: mouse, in vivo; cited from earlier work.
The nature of data set [11]: in vitro. Particulars: human.
Data set [12] can be described thus: in vivo. Particulars: male, Hartley, guinea pig, ip, 125 mg/kg.
Data set [13] deals with Marburg virus/H.sapiens-tc/KEN/1980/Mt. Elgon-Musoke (MARV/Mus). Description: organism not typed. It counts as cell-based. Particulars: HeLa.
For data set [14], the system named is MARV (Musoke and Angola). The experiment in a line: organism not typed. Format: cell-based, Marburg virus. Particulars: HeLa, read-out: IC50 range against two strains of MARV.
Data set [15] has as its system EBOV (Kikwit, Mayinga and Makona). The experiment in a line: microbe, parasite or virus in culture. Format: cell-based, Ebola virus. Conditions: Zaire ebolavirus, HeLa, read-out: IC50 range against three strains of EBOV.
The conditions of data set [16]: human, in vivo; cited from earlier work.
Data set [17] has as its system VSV pseudotyped with EBOV glycoprotein. Format: cell-based.
The test system of data set [18] is MARV Musoke strain. Format: cell-based, Marburg virus.
For data set [19] the following is noted: male, Hartley, guinea pig, in vivo.
The subject of data set [20] is Marburg virus/H.sapiens-tc/AGO/2005/Ang-1379v (MARV/Ang). Description: organism not typed. Format: cell-based. Conditions: HeLa.
The conditions of data set [21]: both, Hartley, guinea pig, in vivo.
For data set [22] the following is noted: pH 7.4.
The test system of data set [23] is EBOV. Particulars: in vivo, iv; cited from earlier work.
Data set [24] has as its system EBOV. Conditions: human, in vivo; cited from earlier work.

Where two headings read alike, the source gives them in different places.

As to 17-DMAG, the “activity in the guinea pig in vivo model” value in data set [1] was “inactive”.
Take `Nc1nc(Nc2ccc3c(c2)CC[C@@H](N2CCCC2)CC3)nn1-c1cc2c(nn1)-c1ccccc1CCC2` [BGB324]: in data set [1], the “activity in the guinea pig in vivo model” value is “inactive”.
Take `CCN(CC)CCCC(C)Nc1ccnc2cc(Cl)ccc12` (centres unmarked) [Chloroquine]: the half-life (in general, the time in which the quantity being followed falls by half) in data set [2] was found to be 3.36 h; in [4], 0.788 h; in data set [7], 2.21 h. Further, the Clint was determined as 13.0 µL·min/mg in [3], 10.5 µL·min/mg in [5], 6.9 µL·min/mg in data set [6] and 29.3 µL·min/mg in data set [8]. Further, the “activity in the guinea pig in vivo model” value in [1] is “inactive”.
`NC(=O)c1nc(F)c[nH]c1=O` [Favipiravir]: the survival rates in data set [9] was 83–100%. The protection in data set [10] is 83%.
On to `COc1ccc2nc3cc(Cl)ccc3c(Nc3cc(CN4CCCC4)c(O)c(CN4CCCC4)c3)c2n1` [Pyronaridine, 4-[(7-Chloro-2-methoxybenzo[b][1,5]naphthyridin-10-yl)amino]-2,6-bis(1-pyrrolidinylmethyl)phenol phosphate (1:4)], for which the CC50 in data set [11] is 4.11 ± 0.5 µM. Also, the AUC(0-inf) – broadly, the area under the concentration-time curve extrapolated to infinity – in data set [12] came to 17400 ng·h/mL. Moreover, the AUC(0-t) (in general, exposure summed from dosing to a finite time, without extrapolation to infinity) in data set [12] was determined as 16600 ng·h/mL. The peak concentration (Cmax) (usually the highest concentration seen after dosing) in data set [12] worked out at 523 ng/mL. The half-life is 72.7 h in [12] (T1/2), 2.04 h in [2], greater than 3.1 h in data set [4] and 1.1 h in [7]. In addition, the IC50 (in general, the concentration needed to halve the response being measured) in data set [13] is 1.01 ± 0.11 µM; in [14], 1.01 to 2.72 µM; in data set [15], 0.82 to 1.3 µM; in data set [20], 2.72 ± 0.97 µM. In data set [16], the t1/2 is 195 to 251 h. In addition, the Clint in data set [3] was 15.5 µL·min/mg; in data set [5], 21.0 µL·min/mg; in [6] it was 11.4 µL·min/mg; in [8], less than 7.4 µL·min/mg. In [17], the “Effect on entry stage of infection in pseudotype assay” value (from here on “Effect on entry stage of infection”) is listed as “block the entry stage of infection”. Also, the “Activity against MARV Musoke strain” value in [18] is “active”. Further, the “Guinea pigs found dead on days 14 and 17 post dose” value in data set [19] is on record as 2 of 3. For the same molecule, the T1/2 in [19] (po, 600 mg/kg) came to 90.5 h. Further, the “guinea pigs found dead within 30 mins post injection” value in data set [21] is 4 of 6. Also, the “guinea pigs having any abnormal clinical observations” value in data set [21] is 1 of 6.
Take `CCN(CC)CCCC(C)Nc1c2ccc(Cl)cc2nc2ccc(OC)cc12` (centres unmarked) [Quinacrine]: in data set [11], the CC50 came out at 8.62 ± 0.02 µM. In addition, the IC50 in [13] worked out at 1.57 ± 0.17 µM; in data set [20] it was 2.94 ± 0.76 µM. The half-life came out at 0.458 h in data set [2], 0.21 h in [4] and 0.285 h in data set [7]. Also, the “O-demethylation, higher in guinea pig” value in [22] is given as 2–3 times. Further, the Clint in [3] was 137.4 µL·min/mg; in data set [5], 81.3 µL·min/mg; in [6] it was 50.5 µL·min/mg; in [8], 110.0 µL·min/mg. Moreover, the “Effect on entry stage of infection” value in data set [17] is “block the entry stage of infection”. Moreover, in [18], the “Activity against MARV Musoke strain” value is reported as “active”.
In [11], `CCN(CC)CCOc1ccc2c(c1)C(=O)c1cc(OCCN(CC)CC)ccc1-2` [Tilorone] came in with a CC50 of 18 ± 3.04 µM. The IC50 in data set [13] worked out at 2.05 ± 0.28 µM; in data set [20], 4.51 ± 1.93 µM. Also, the results for the half-life in data set [2], in data set [4] and in data set [7] were 2.12 h, 1.71 h and 0.203 h, respectively. Further, the Clint in data set [3] turned out to be 14.7 µL·min/mg; in data set [5] it was 113.7 µL·min/mg; in data set [6], 10.9 µL·min/mg; in data set [8] it was 13.5 µL·min/mg. The “Effect on entry stage of infection” value in data set [17] is listed as “block the entry stage of infection”. Besides, the “Activity against MARV Musoke strain” value in data set [18] is given as “active”.
In the case of `CCCCc1oc2ccccc2c1C(=O)c1cc(I)c(OCCN(CC)CC)c(I)c1` [amiodarone], the “activity in the guinea pig in vivo model” value in data set [1] is “inactive”.
Consider `CC[C@H]1OC(=O)[C@H](C)[C@@H](O[C@H]2C[C@@](C)(OC)[C@@H](O)[C@H](C)O2)[C@H](C)[C@@H](O[C@@H]2O[C@H](C)C[C@H](N(C)C)[C@H]2O)[C@](C)(O)C[C@@H](C)CN(C)[C@H](C)[C@@H](O)[C@]1(C)O` [azithromycin], for which, in data set [1], the “activity in the guinea pig in vivo model” value was “inactive”.
With `CCC(CC)COC(=O)[C@H](C)N[P@](=O)(OC[C@H]1O[C@@](C#N)(c2ccc3c(N)ncnn23)[C@H](O)[C@@H]1O)Oc1ccccc1` [remdesivir], in data set [23], the survival is on record as 100%. The overall survival rate in [24] is on record as 47%.

B1: mAb114: a monoclonal antibody (antibody, chains of the INN, looked up, V domains shown)
VH: EVQLVESGGGLIQPGGSLRLSCAASGFALRMYDMHWVRQTIDKRLEWVSAVGPSGDTTYADSVKGRFAVSRENAKNSLSLQMNSLTAGDTAIYYCVRSDRGVAGLFDSWGQGILVTVSS
VL: DIQMTQSPSSLSASVGDRITITCRASQAFDNYVAWYQQRPGKVPKLLISAASALHAGVPSRFSGSGSGTHFTLTISSLQPEDVATYYCQNYNSAPLTFGGGTKVEIK
With B1, the overall survival rate in data set [24] is recorded as 66%.
